Assays:
[1] = Water uptake experiments (Dynamic Vapor Sorption); assay type: physicochemical; conditions: equilibrated under 80% relative humidity (RH) air at 25° C.
Description: A dry sample of the crystalline form having a melting point or a decomposition point of about 278° C. to about 285° C. (i.e., Form II) typically gains less than about 1% of its own weight when equilibrated under 80% relative humidity (RH) air at 25° C. […] For the present purposes, the term “essentially 0% RH” means less than about 1% RH. The term “equilibrated” means that the change in weight of a sample over time at a given relative humidity is less than 0.0003% ((dm/dt)/m0×100, where m is mass in mg, m0 is initial mass, and t is time in minutes).
Water sorption experiments are performed on a Dynamic Vapor Sorption (DVS) apparatus (DVS-1000 manufactured by Surface Measurements Systems, Inc.). Experiments are performed at 25° C. by initially drying the material of interest (about 10 mg sample) from 30% relative humidity (RH) (ambient room condition) to about 9% RH in a stepwise fashion (10% RH step) by purging with dry nitrogen until no further weight change was observed. The samples are then exposed to a stepwise (10% RH steps) increase in RH from about 0 to about 90% RH. Each successive step is initiated when the change in weight over time at the relative humidity was less than 0.0003% ((dm/dt)/m0×100, where m is mass in mg, m0 is initial mass, and t is time in minutes). […] The data are collected on a computer and analyzed using SMS' proprietary MS-Excel macro interface software.

Male beagle dogs = test: Serum triglyceride in beagle dogs; assay type: in vivo, dog; conditions: pravastatin 10 mg/kg/day dosed Weeks 1-11; Week 10; mean ± SEM, n=6
Description: Following this initial four week dose-ranging study, dogs from the two groups receiving 10 mg/kg/day pravastatin (a.m. and p.m. dosing groups) were randomized into two new treatment groups based on serum total cholesterol levels to initiate the combination treatment study. One group received an empty capsule (a.m. dosing) and 10 mg/kg/day pravastatin (p.m. dosing) and the other received 4.0 mg/kg/day compound A-5 (a.m. dosing) and 10 mg/kg/day pravastatin (p.m. dosing). A third group that had received empty capsules (vehicle) in the dose-ranging study was used for compound A-5 monotherapy and was administered 4.0 mg/kg/day compound A-5 (a.m. dosing) and an empty capsule (p.m. dosing). […]
Blood was collected from the cephalic vein of each dog into serum separator tubes. […] Commercial calibrator and quality control materials were analyzed with each run to verify assay accuracy and precision. […]
Serum lipid measurements were obtained as described in Example 3 above except that blood was collected from either the cephalic or jugular vein of each dog into serum separator tubes and the blood was centrifuged at 2000 rpm for 20 minutes. Table X-4A below reports the data measured on the effect of the compound A-5/pravastatin combination therapy on serum total cholesterol. […]

weight gain of a dry sample (of its own weight) [1] | Structure (SMILES) | TOTAL SERUM TRIGLYCERIDE (Male beagle dogs)
less than 1% | CCCCC1(CCCC)CS(=O)(=O)c2ccc(N(C)C)cc2[C@@H](c2ccc(OCc3ccc(C[N+]45CCN(CC4)CC5)cc3)cc2)[C@H]1O.[Cl-] [Form II, (4R,5R)-1-((4-(4-(3,3-dibutyl-7-(dimethylamino)-2,3,4,5-tetrahydro-4-hydroxy-1,1-dioxido-1-benzithiepin-5-yl)phenoxy)methyl)phenyl)methyl-4-aza-1-azoniabicyclo[2.2.2]octane chloride] | 
 | CC[C@H](C)C(=O)O[C@H]1C[C@H](O)C=C2C=C[C@H](C)[C@H](CC[C@@H](O)C[C@@H](O)CC(=O)O)[C@H]21 [pravastatin, Pravastatin] | 43 ± 5 mg/dL

Reference: patent publication US20030232834A1, “Combination therapy for the prophylaxis and treatment of hyperlipidemic conditions and disorders” (priority 2002, published 2003)
